Measured values taken from PMC9569593, “Measurement of Hepatic CYP3A4 and 2D6 Activity Using Radioiodine-Labeled O-Desmethylvenlafaxine” (International Journal of Molecular Sciences, 2022).
Where two headings read alike, the source gives them in different places.

Legend:
CYP = conditions: for fraction of 125I-ODV / peak of 125I-ODV metabolite: NADPH [+]
Description: Animal studies were approved by the Animal Care Committee at Kanazawa University (AP-173851) and were conducted in accordance with international standards for animal welfare and institutional guidelines. For preparation of the pooled mouse liver homogenates (MLH), three six-week-old ddY mice (Japan SLC, Tokyo, Japan) were euthanized under anesthesia with isoflurane, and the removed livers were weighed. After adding Krebs–Ringer phosphate buffer (pH 7.4), the pooled livers were homogenized with an ultrasonic homogenizer (SONIFIER250, Branson, MO, USA), and the protein content was measured according to the bicinchoninic acid method. The pooled MLH was stored at −80 °C.
For analysis of NADPH-mediated metabolism of ^125I-ODV, NADPH was used as an energy source of CYP-mediated metabolism. Adding an NADPH-generating system produced a state in which CYP was active. NADPH-mediated metabolism of ^125I-ODV was examined in a mixture consisting of an NADPH-generating system (0.5 mM β-NADP^+, 5 mM MgCl2, 5 mM G6P, and 1 U/mL G6PD), 100 mM sodium potassium phosphate buffer (pH 7.4), 50 μM EDTA disodium salt, and 1000 μg protein/20 μL pooled MLH in a final volume of 250 μL (NADPH [+]). […] The samples were incubated at 37 °C for 5, 15, 30, and 60 min with gentle shaking, ethanol was added to stop the reactions, and the samples were centrifuged at 18,000 g for 5 min. The supernatants in each sample were analyzed by HPLC. The mobile phase consisted of 70% 20 mM KH2PO4 buffer (pH 4.0) and 30% acetonitrile at a flow rate of 1.0 mL/min (n = 3).

[1] = for Biological distribution, Blood / Biological distribution, Brain / Biological distribution, Gallbladder / Biological distribution, Heart / Biological distribution, Kidney / Biological distribution, Large intestines / Biological distribution, Liver / Biological distribution, Lung / Biological distribution, Pancreas / Biological distribution, Small intestines / Biological distribution, Spleen / Biological distribution, Stomach / Biological distribution, Thyroid / Biological distribution, Urine: control normal mice, i.v.
Description: For biological distribution in normal mice, ^125I-ODV was prepared to a radioactivity concentration of 185 kBq/mL by adding saline. A total of 20 mice fasted for 6 hr were administered ^125I-ODV via the tail vein (18.5 kBq/100 µL/mouse). After 5, 15, 30, and 60 min, normal mice were euthanized under isoflurane anesthesia (n = 4), and the following tissues were collected: blood, brain, heart, lung, thyroid, gallbladder, liver, spleen, pancreas, stomach, small intestines, large intestines, and kidney. Tissues were weighed, and radioactivity was quantified using a γ-ray counter to calculate the %ID or percent injected dose per gram of tissue (%ID/g).

[2] = normal mice, after 5 min of administration

## CN(C)CC(c1ccc(O)c([125I])c1)C1(O)CCCCC1 (stereo not drawn) [^125I-ODV, iodine-125-labeled O-desmethylvenlafaxine]
CYP; end value of the decrease
  fraction of 125I-ODV: ~54%
CYP; end value of the increase
  peak of 125I-ODV metabolite: ~46%
CYP; start value of the decrease
  fraction of 125I-ODV: about 85%
CYP; start value of the increase
  peak of 125I-ODV metabolite: about 0%
CYP; NADPH [−], 37 °C, 15 min
  percentage of metabolite: 1.52%
[1]; 5 min
  Biological distribution, Blood: 1.89 %ID/g
  Biological distribution, Brain: 0.80 %ID/g
  Biological distribution, Gallbladder: 4.31 %ID/g
  Biological distribution, Heart: 5.64 %ID/g
  Biological distribution, Kidney: 22.95 %ID/g
  Biological distribution, Large intestines: 1.32 %ID/organ
  Biological distribution, Liver: 6.91 %ID/g
  Biological distribution, Lung: 27.04 %ID/g
  Biological distribution, Pancreas: 7.87 %ID/g
  Biological distribution, Small intestines: 6.85 %ID/organ
  Biological distribution, Spleen: 9.22 %ID/g
  Biological distribution, Stomach: 2.44 %ID/organ
  Biological distribution, Thyroid: 0.06 %ID/organ
  Biological distribution, Urine: 0.63 %ID/organ
[1]; 15 min
  Biological distribution, Blood: 1.31 %ID/g
  Biological distribution, Brain: 0.75 %ID/g
  Biological distribution, Gallbladder: 5.26 %ID/g
  Biological distribution, Heart: 2.71 %ID/g
  Biological distribution, Kidney: 16.37 %ID/g
  Biological distribution, Large intestines: 1.18 %ID/organ
  Biological distribution, Liver: 6.04 %ID/g
  Biological distribution, Lung: 16.75 %ID/g
  Biological distribution, Pancreas: 6.04 %ID/g
  Biological distribution, Small intestines: 7.70 %ID/organ
  Biological distribution, Spleen: 4.79 %ID/g
  Biological distribution, Stomach: 3.19 %ID/organ
  Biological distribution, Thyroid: 0.03 %ID/organ
  Biological distribution, Urine: 3.37 %ID/organ
[1]; 30 min
  Biological distribution, Blood: 1.34 %ID/g
  Biological distribution, Brain: 0.73 %ID/g
  Biological distribution, Gallbladder: 24.23 %ID/g
  Biological distribution, Heart: 2.04 %ID/g
  Biological distribution, Kidney: 14.27 %ID/g
  Biological distribution, Large intestines: 0.68 %ID/organ
  Biological distribution, Liver: 5.45 %ID/g
  Biological distribution, Lung: 13.30 %ID/g
  Biological distribution, Pancreas: 5.02 %ID/g
  Biological distribution, Small intestines: 8.47 %ID/organ
  Biological distribution, Spleen: 3.45 %ID/g
  Biological distribution, Stomach: 2.75 %ID/organ
  Biological distribution, Thyroid: 0.04 %ID/organ
  Biological distribution, Urine: 3.69 %ID/organ
[1]; 60 min
  Biological distribution, Blood: 0.74 %ID/g
  Biological distribution, Brain: 0.60 %ID/g
  Biological distribution, Gallbladder: 33.05 %ID/g
  Biological distribution, Heart: 1.00 %ID/g
  Biological distribution, Kidney: 9.42 %ID/g
  Biological distribution, Large intestines: 0.47 %ID/organ
  Biological distribution, Liver: 2.89 %ID/g
  Biological distribution, Lung: 5.01 %ID/g
  Biological distribution, Pancreas: 2.92 %ID/g
  Biological distribution, Small intestines: 11.03 %ID/organ
  Biological distribution, Spleen: 1.75 %ID/g
  Biological distribution, Stomach: 1.88 %ID/organ
  Biological distribution, Thyroid: 0.02 %ID/organ
  Biological distribution, Urine: 7.31 %ID/organ
[1]; [2]
  accumulation in the kidneys: more than 20%
  accumulation in the lungs: more than 20%
